IC50 data for 24 compounds are collected here from US20260158009A1 (GENZYME CORPORATION, priority 2023, published 2026).

The target in test [1] is T1, hRIPK1 (aa 1-375) fusion protein (Homo sapiens, UniProt Q13546).
T1 construct: hRIPK1 (aa 1-375) fusion protein
T1 sequence (Q13546 1-375): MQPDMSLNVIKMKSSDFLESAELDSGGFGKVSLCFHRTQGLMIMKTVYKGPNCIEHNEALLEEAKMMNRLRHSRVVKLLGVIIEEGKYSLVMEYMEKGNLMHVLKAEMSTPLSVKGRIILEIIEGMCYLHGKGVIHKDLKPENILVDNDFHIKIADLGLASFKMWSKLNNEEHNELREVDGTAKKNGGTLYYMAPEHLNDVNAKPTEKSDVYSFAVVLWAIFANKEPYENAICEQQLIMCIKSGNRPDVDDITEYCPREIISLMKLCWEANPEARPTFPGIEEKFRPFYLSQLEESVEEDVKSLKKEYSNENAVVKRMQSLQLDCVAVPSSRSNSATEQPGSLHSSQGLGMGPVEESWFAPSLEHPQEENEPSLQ
Kind of test: ADP-Glo kinase assay: catalytic activity of RIPK1 (autophosphorylation, conversion of ATP to ADP). The class given is biochemical. The essentials:
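hRIPK1 (aa 1-375) fusion protein (3.6 μg/ml final) was preincubated 30 min at rt with compound (33300-1.69 nM, 1% DMSO), then 50 μM ATP was added for 240 min at rt. ADP from autophosphorylation was measured by ADP-Glo luminescence and curves fitted by nonlinear regression.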
A general note: In ADP-Glo the light output rises with the ADP produced.

The next test concerns U937 cells. Kind of test: Cellular assay in U937 cells: activity of RIPK1 inhibitors on TNFα/zVAD.fmk-induced cell death (necroptosis), CellTiter 96 AQueous (MTS) readout. Particulars: Homo sapiens, U-937. In kind it is cell-based. The essentials: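 Necroptosis was measured by viable-cell MTS reduction (4 h, absorbance 490 nm) after overnight (18–24 h) 37° C culture. Cell suspensions of U937 cells carried TNFα (100 ng/ml) plus zVAD.fmk (50 μM) before compound was added. A 10-point curve (10 μM–0.26 nM or 1 μM–0.07 nM) was run in duplicate, normalised to the control lacking TNFα/zVAD.fmk.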

`Cc1cc2nnc(C)n2cc1C[C@H]1CC[C@H](C(=O)N2OCC[C@H]2c2cccc(F)c2)CC1` [compound 317, trans-[4-[(3,7-dimethyl-[1,2,4]triazolo[4,3-a]pyridin-6-yl)methyl]cyclohexyl]-[(3S)-3-(3-fluorophenyl)isoxazolidin-2-yl]methanone]: the IC50 was determined as 7 nM in test [1] and 2 nM in the test with U937 cells.

As for `Cc1ncc(F)cc1C[C@H]1CC[C@H](C(=O)N2OCC[C@H]2c2cnccn2)CC1` [compound 180, trans-[4-[(5-fluoro-2-methyl-3-pyridyl)methyl]cyclohexyl]-[(3S)-3-pyrazin-2-ylisoxazolidin-2-yl]methanone], the IC50 was 32 nM in test [1] and 11 nM in the test on U937 cells.

For `NC(=O)c1ccc2cnn(C[C@H]3CC[C@H](C(=O)N4OCC[C@H]4c4ccccn4)CC3)c2c1` [Compound 230, trans-1-[[4-[(3S)-3-(2-pyridyl)isoxazolidine-2-carbonyl]cyclohexyl]methyl]indazole-6-carboxamide], the IC50 in test [1] came to 131 nM; in the test with U937 cells, 376 nM.

For `O=C([C@H]1CC[C@H](Cn2cc3cc(F)ccc3n2)CC1)N1OCC[C@H]1c1cc(F)cc(F)c1` [compound 57, trans-((S)-3-(3,5-difluorophenyl)isoxazolidin-2-yl)(4-((5-fluoro-2H-indazol-2-yl)methyl)cyclohexyl)methanone], the IC50 in test [1] was found to be 27 nM; with U937 cells, 41 nM.

On to `NC(=O)c1ccc2c(ccn2C[C@H]2CC[C@H](C(=O)N3OCC[C@H]3c3cnccn3)CC2)c1` [compound 251, trans-1-[[4-[(3S)-3-pyrazin-2-ylisoxazolidine-2-carbonyl]cyclohexyl]methyl]indole-5-carboxamide], for which the half-inhibitory concentration (IC50) in test [1] was 8 nM; with U937 cells, 17 nM.

Turning to `N#Cc1ccc2nn(C[C@H]3CC[C@H](C(=O)N4OCC[C@H]4c4cc(F)cc(F)c4)CC3)cc2c1` [compound 58, trans-2-((4-((S)-3-(3,5-difluorophenyl)isoxazolidine-2-carbonyl)cyclohexyl)methyl)-2H-indazole-5-carbonitrile], the IC50 in test [1] turned out to be 26 nM; with U937 cells, 32 nM.

With `Cc1ccc(C[C@H]2CC[C@H](C(=O)N3OCC[C@H]3c3cncc(C#N)c3)CC2)cc1C(N)=O` [compound 158, trans-5-[[4-[(3S)-3-(5-cyano-3-pyridyl)isoxazolidine-2-carbonyl]cyclohexyl]methyl]-2-methyl-benzamide], the results for the IC50 (in test [1]; with U937 cells) were 9 nM and 33 nM, respectively.

For the compound `N#Cc1cc2cnn(C[C@H]3CC[C@H](C(=O)N4OCC[C@H]4c4cc(F)cc(F)c4)CC3)c2cc1F` [compound 67, trans-1-((4-((S)-3-(3,5-difluorophenyl)isoxazolidine-2-carbonyl)cyclohexyl)methyl)-6-fluoro-1H-indazole-5-carbonitrile], the IC50 turned out to be 15 nM in test [1] and 2 nM in the test with U937 cells.

Regarding `Cc1nc2ccc(C[C@H]3CC[C@H](C(=O)N4OCC[C@H]4c4ccc(F)c(F)c4)CC3)nn2n1` [compound 310, trans-[(3S)-3-(3,4-difluorophenyl)isoxazolidin-2-yl]-[4-[(2-methyl-[1,2,4]triazolo[1,5-b]pyridazin-6-yl)methyl]cyclohexyl]methanone], the IC50 amounted to 12 nM in test [1] and 22 nM in the test with U937 cells.

With `Cc1cc(C[C@H]2CC[C@H](C(=O)N3OCC[C@H]3c3cnc(C)c(F)c3)CC2)c(C)cn1` [compound 332, trans-[4-[(2,5-dimethylpyridin-4-yl)methyl]cyclohexyl]-[(3S)-3-(5-fluoro-6-methylpyridin-3-yl)-1,2-oxazolidin-2-yl]methanone], the IC50 is 12 nM in test [1] and 3 nM in the test on U937 cells.

Take `N#Cc1cc(F)cc([C@@H]2CCON2C(=O)[C@H]2CC[C@H](Cn3cnc4cc(C(N)=O)c(F)cc43)CC2)c1` [compound 74, trans-1-((4-((S)-3-(3-cyano-5-fluorophenyl)isoxazolidine-2-carbonyl)cyclohexyl)methyl)-6-fluoro-1H-benzo[d]imidazole-5-carboxamide]: the figures for the IC50 (in test [1]; in the test with U937 cells) were 28 nM and 106 nM, respectively.

Regarding `Cc1nn(C[C@H]2CC[C@H](C(=O)N3OCC[C@H]3c3cc(F)cc(C#N)c3)CC2)c2cc(C#N)cc(F)c12` [compound 100, trans-1-((4-((S)-3-(3-cyano-5-fluorophenyl)isoxazolidine-2-carbonyl)cyclohexyl)methyl)-4-fluoro-3-methyl-1H-indazole-6-carbonitrile], the IC50 came to 17 nM in test [1] and 4 nM in the test with U937 cells.

In the case of `COc1cncc([C@@H]2CCON2C(=O)[C@H]2CC[C@H](Cn3ccc4cc(C(N)=O)ccc43)CC2)n1` [compound 253, trans-1-[[4-[(3S)-3-(6-methoxypyrazin-2-yl)isoxazolidine-2-carbonyl]cyclohexyl]methyl]indole-5-carboxamide], the figures for the IC50 (in test [1]; in the test on U937 cells) were 18 nM and 175 nM, respectively.

In the case of `COc1cc(C[C@H]2CC[C@H](C(=O)N3OCC[C@H]3c3cncc(F)c3)CC2)cn2nc(C)nc12` [compound 345, trans-[(3S)-3-(5-fluoropyridin-3-yl)-1,2-oxazolidin-2-yl]-[4-[(8-methoxy-2-methyl-[1,2,4]triazolo[1,5-a]pyridin-6-yl)methyl]cyclohexyl]methanone], the 50% inhibitory concentration (IC50) in test [1] was 26 nM; in the test on U937 cells it was 8 nM.

On to `Cc1nc2ccc(C[C@H]3CC[C@H](C(=O)N4OCC[C@H]4c4cc(F)cc(C#N)c4)CC3)cn2n1` [compound 221, trans-3-fluoro-5-[(3S)-2-[4-[(2-methyl-[1,2,4]triazolo[1,5-a]pyridin-6-yl)methyl]cyclohexanecarbonyl]isoxazolidin-3-yl]benzonitrile], for which the half-maximal inhibitory concentration (IC50) in test [1] was 22 nM; in the test on U937 cells it was 19 nM.

For the compound `Cc1ncc(C[C@H]2CC[C@H](C(=O)N3OCC[C@H]3c3cnc(C)c(F)c3)CC2)c(C(F)(F)F)n1` [compound 399, [(3S)-3-(5-fluoro-6-methylpyridin-3-yl)-1,2-oxazolidin-2-yl]-[4-[[2-methyl-4-(trifluoromethyl)pyrimidin-5-yl]methyl]cyclohexyl]methanone], the half-inhibitory concentration (IC50) in test [1] worked out at 85 nM; with U937 cells it was 274 nM.

For the compound `O=C([C@H]1CC[C@H](Cn2cnc3ccc(F)cc32)CC1)N1OCC[C@H]1c1cc(F)cc(F)c1` [compound 113, trans-((S)-3-(3,5-difluorophenyl)isoxazolidin-2-yl)(4-((6-fluoro-1H-benzo[d]imidazol-1-yl)methyl)cyclohexyl)methanone], the IC50 in test [1] came to 24 nM; in the test with U937 cells, 3 nM.

Take `Cc1nc(C[C@H]2CC[C@H](C(=O)N3OCC[C@H]3c3cnccn3)CC2)cs1` [compound 240, trans-[4-[(2-methylthiazol-4-yl)methyl]cyclohexyl]-[(3S)-3-pyrazin-2-ylisoxazolidin-2-yl]methanone]: the figures for the IC50 (in test [1]; in the test on U937 cells) were 27 nM and 52 nM, respectively.

As to `Cc1ccc([C@@H]2CCON2C(=O)[C@H]2CC[C@H](Cc3cc(C)c4nnc(C)n4c3)CC2)cn1` [compound 365, trans-[4-(3,8-Dimethyl-[1,2,4]triazolo[4,3-a]pyridin-6-ylmethyl)-cyclohexyl]-[(S)-3-(6-methyl-pyridin-3-yl)-isoxazolidin-2-yl]-methanone], the IC50 in test [1] came to 97 nM; with U937 cells it was 71 nM.

As to `Cc1nc2c(Cl)cc(C[C@H]3CC[C@H](C(=O)N4OCC[C@H]4c4cnc(C)c(F)c4)CC3)cn2n1` [compound 381, [4-[(8-chloro-2-methyl-[1,2,4]triazolo[1,5-a]pyridin-6-yl)methyl]cyclohexyl]-[(3S)-3-(5-fluoro-6-methylpyridin-3-yl)-1,2-oxazolidin-2-yl]methanone], the IC50 in test [1] is 31 nM; in the test with U937 cells, 8 nM.

In the case of `N#Cc1cnc2cn(C[C@H]3CC[C@H](C(=O)N4OCC[C@H]4c4cc(F)cc(F)c4)CC3)nc2c1` [compound 25, trans-2-((4-((S)-3-(3,5-difluorophenyl)isoxazolidine-2-carbonyl)cyclohexyl)methyl)-2H-pyrazolo[4,3-b]pyridine-6-carbonitrile], the IC50 in test [1] amounted to 68 nM; in the test on U937 cells it was 154 nM.

Take `N#Cc1cc(F)cc([C@@H]2CCON2C(=O)[C@H]2CC[C@H](Cn3ccc4cc(F)c(C(N)=O)cc43)CC2)c1` [compound 76, trans-1-((4-((S)-3-(3-cyano-5-fluorophenyl)isoxazolidine-2-carbonyl)cyclohexyl)methyl)-5-fluoro-1H-indole-6-carboxamide]: the IC50 turned out to be 17 nM in test [1] and 8 nM with U937 cells.

In the case of `N#Cc1cc(F)cc([C@@H]2CCON2C(=O)[C@H]2CC[C@H](Cc3cnccn3)CC2)c1` [compound 245, trans-3-fluoro-5-[(3S)-2-[4-(pyrazin-2-ylmethyl)cyclohexanecarbonyl]isoxazolidin-3-yl]benzonitrile], the concentration for half-maximal inhibition (IC50) in test [1] was determined as 17 nM; in the test on U937 cells, 16 nM.

As to `Cc1ncc(F)cc1C[C@H]1CC[C@H](C(=O)N2OCC[C@H]2c2cncc(C#N)c2)CC1` [compound 197, trans-5-[(3S)-2-[4-[(5-fluoro-2-methyl-3-pyridyl)methyl]cyclohexanecarbonyl]isoxazolidin-3-yl]pyridine-3-carbonitrile], the results for the IC50 (in test [1]; in the test on U937 cells) were 24 nM and 4 nM, respectively.

The term IC50 denotes the concentration at which inhibition is half-maximal. A higher IC50 goes with a need for much substance.
